Assay results reported in patent US20250099431A1, “GLP-1R MODULATING COMPOUNDS” (priority 2020, published 2025).

Columns and labels:
GLP-1R = GLP-1R (Homo sapiens (Human), UniProt P43220); assay: GLP-1R activation: cAMP increase in CHO cells stably expressing GLP-1R; format: cell-based; conditions: cAMP increase, 10 point dose response, 30 minutes incubation at 37° C., read-out: EC50
Summary of the method: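 CHO cells stably expressing GLP-1R were incubated 1 h at 37 °C in medium with 1% BSA, then exposed to compound in a 10-point dose response for 30 min at 37 °C. cAMP rise was detected by HTRF (Gs Dynamic kit). EC50 came from a sigmoidal fit of response against log agonist concentration.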

[1] = Microsomal stability (liver microsomal assay, mixed cofactors); predicted hepatic clearance; format: in vitro ADME; conditions: liver microsomes 1.0 mg protein/mL (+UDPGA +NADPH), 1 μM analyte, 37° C.; scaled with human liver weight and hepatic blood flow 1.3 L/hr/kg
Summary of the method: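 Compound at 1 μM with human or rat pooled liver microsomes, alamethicin-treated, pH 7.4 phosphate, NADPH-regenerating plus UDPGA cofactors, 37° C, sampled 0–70 min. Parent/internal standard ratio by RapidFire QToF MS; half-life from initial log-linear decay, scaled to intrinsic and predicted hepatic clearance and hepatic extraction.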

Sequence of GLP-1R (P43220 24-463): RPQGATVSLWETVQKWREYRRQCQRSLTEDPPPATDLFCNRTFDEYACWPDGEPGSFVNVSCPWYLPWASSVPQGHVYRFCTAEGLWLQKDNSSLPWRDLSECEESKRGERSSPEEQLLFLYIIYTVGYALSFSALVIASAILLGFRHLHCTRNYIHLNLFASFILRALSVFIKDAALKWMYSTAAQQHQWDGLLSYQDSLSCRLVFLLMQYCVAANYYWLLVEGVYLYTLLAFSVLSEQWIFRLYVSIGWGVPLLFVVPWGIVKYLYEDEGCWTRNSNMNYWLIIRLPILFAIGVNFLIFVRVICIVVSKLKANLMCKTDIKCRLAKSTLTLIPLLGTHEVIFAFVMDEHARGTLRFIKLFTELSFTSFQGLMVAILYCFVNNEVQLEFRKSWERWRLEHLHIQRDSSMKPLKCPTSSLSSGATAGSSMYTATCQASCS

SMILES	EC50 (GLP-1R) [nM]	Predicted Hepatic Clearance (Pred. Cl.) [1] [mL/min/kg]
COCCn1c(Cc2ccc(-c3cccc4c3OC(C)(c3ccc(Cl)cc3F)O4)[nH]c2=O)nc2ccc(C(=O)O)cc21 (stereo not drawn) [Example 86, 2-((6-(2-(4-chloro-2-fluorophenyl)-2-methylbenzo[d][1, 3]dioxol-4-yl)-2-oxo-1,2-dihydropyridin-3-yl)methyl)-1-(2-methoxyethyl)-1H-benzo[d]imidazole-6-carboxylic acid]	13	2
CC1(c2ccc(C#N)cc2F)Oc2cccc(-c3cc(F)c(Cc4nc5ccc(C(=O)O)cc5n4C[C@@H]4CCO4)c(F)c3F)c2O1 (single isomer, unassigned) [Example 95]	21	2.83
CC1(c2ccc(Cl)cn2)Oc2cccc(-c3cc(F)c(Cc4nc5ccc(C(=O)O)cc5n4C[C@@H]4CCO4)c(F)c3)c2O1 (stereo partly drawn) [Example 27, 2-(4-(2-(5-chloropyridin-2-yl)-2-methylbenzo[d][1, 3]dioxol-4-yl)-2,6-difluorobenzyl)-1-(((S)-oxetan-2-yl)methyl)-1H-benzo[d]imidazole-6-carboxylic acid]	0.53	2.33
COCCn1c(Cc2c(F)cc(-c3cccc4c3OC(C)(c3ccc(C#N)cc3F)O4)c(F)c2F)nc2ccc(C(=O)O)cc21 (single isomer, unassigned) [Example 97, 2-(4-(2-(4-cyano-2-fluorophenyl)-2-methylbenzo[d][1, 3]dioxol-4-yl)-2,3,6-trifluorobenzyl)-1-(2-methoxyethyl)-1H-benzo[d]imidazole-6-carboxylic acid]	1.9	15.2
CC1(c2ccc(Cl)cc2F)Oc2cccc(-c3ccc(Cc4nc5ccc(C(=O)O)cc5n4C[C@@H]4CCO4)c(F)c3)c2O1 (stereo partly drawn) [Example 23, 2-(4-(2-(4-chloro-2-fluorophenyl)-2-methylbenzo[d][1, 3]dioxol-4-yl)-2-fluorobenzyl)-1-(((S)-oxetan-2-yl)methyl)-1H-benzo[d]imidazole-6-carboxylic acid]	0.49	2.33

Continued, values first:

EC50 (GLP-1R) [nM]	Predicted Hepatic Clearance (Pred. Cl.) [1] [mL/min/kg]	SMILES
26	8.67	COCCn1c(Cc2cc(F)c(-c3cccc4c3OC(C)(c3ccc(C#N)cc3F)O4)cc2F)nc2ccc(C(=O)O)cc21 (stereo not drawn) [Example 81, 2-(4-(2-(4-cyano-2-fluorophenyl)-2-methylbenzo[d][1, 3]dioxol-4-yl)-2,5-difluorobenzyl)-1-(2-methoxyethyl)-1H-benzo[d]imidazole-6-carboxylic acid]
49	2.83	COCCn1c(Cc2cc(F)c(-c3cccc4c3OC(C)(c3ccc(Cl)cc3F)O4)cc2F)nc2ccc(-c3nn[nH]n3)cc21 (stereo not drawn) [Example 84, 2-(4-(2-(4-chloro-2-fluorophenyl)-2-methylbenzo[d][1, 3]dioxol-4-yl)-2,5-difluorobenzyl)-1-(2-methoxyethyl)-6-(2H-tetrazol-5-yl)-1H-benzo[d]imidazole]
53	2.67	COCCn1c(Cc2ccc(-c3cccc4c3OC(c3ccc(C#N)cc3F)O4)cc2F)nc2ccc(C(=O)O)cc21 (single isomer, unassigned) [Example 33, 2-(4-(2-(4-cyano-2-fluorophenyl)benzo [d][1,3]dioxol-4-yl)-2-fluorobenzyl)-1-(2-methoxyethyl)-1H-benzo[d]imidazole-6-carboxylic acid]
1.7	2.67	CC1(c2ccc(Cl)cn2)Oc2cccc(-c3cc(F)c(Cc4nc5ccc(C(=O)O)cc5n4CC4(CC#N)CC4)c(F)c3)c2O1 (stereo not drawn) [Example 24, 2-(4-(2-(5-chloropyridin-2-yl)-2-methylbenzo[d][1, 3]dioxol-4-yl)-2,6-difluorobenzyl)-1-((1-(cyanomethyl)cyclo-propyl)methyl)-1H-benzo[d]imidazole 6-carboxylic acid]
